Assay results published in paper PMC8830069, “Metallo-β-Lactamase Inhibitor Phosphonamidate Monoesters” (ACS Omega, 2022).

Columns and labels:
[1] = biological target: T1, NDM-1 (Klebsiella pneumoniae, UniProt C7C422); test: MBL inhibition assay, purified NDM-1, imipenem hydrolysis at 300 nm; format: biochemical; details: for IC50 against purified NDM-1: imipenem reporter substrate, 10 nM enzyme, 2.5% DMSO, highest inhibitor concentration 800 μM, N.I. and P. not defined
Procedure: (§1) The inhibitory activities of 1a–h and 2 against the purified NDM-1, GIM-1, and VIM-2 enzymes were evaluated (IC50 data in Table 1). The inhibitory activity was measured by monitoring nitrocefin hydrolysis for VIM-2 and GIM-1 and that of imipenem for NDM-1[19] at λ 482 and 300 nm, respectively. […] This may indicate that unlike the sulfur of captopril, that of 1a and 2 might not coordinate the zinc ions in the active site. Alternatively, this may be a result of disulfide formation under the conditions of the enzyme assay. The hydrophobic 1f–h precipitated during the enzyme assay and their inhibitory activities could therefore not be reliably measured. This is not unusual as the binding cleft of MBL inhibitors is hydrophobic, and accordingly, their inhibitors typically have poor aqueous solubility.[20] The inhibitors may be solubilized by careful dilution of dimethylsulfoxide (DMSO) stock solutions; however, this was not successful for compounds 1f–h.
(§2) The inhibitory activity (IC50) of 1a–h was studied against the MBL enzymes NDM-1, GIM-1, and VIM-2. The buffer used for the studies contained 50 mM HEPES at pH 7.2, 10 μM ZnSO4, 2.5% DMSO, and 0.4 mg/mL bovine serum albumin, used as a prevention of protein unfolding and loss of activity. The enzyme concentration of NDM-1 was 10 nM, of GIM-1 1 nM, and of VIM-2 100 pM. The inhibitors were dissolved in 100% DMSO, and a twofold dilution series was made with a final 2.5% DMSO in the assay. The highest inhibitor concentration was 800 μM. The reporter substrate for VIM-2 and GIM-1 was nitrocefin, while for NDM-1 imipenem, and their absorbance (concentration) was followed at the wavelengths 482 and 300 nm, respectively. L-Captopril and EDTA-Na were used as positive and water and DMSO as negative controls. Measurements were read for 30 min at 298 K.

[2] = biological target: GIM-1 (Pseudomonas aeruginosa, UniProt Q704V1); test: MBL inhibition assay, purified GIM-1, nitrocefin hydrolysis at 482 nm; format: biochemical; details: for IC50 against purified GIM-1: nitrocefin reporter substrate, 1 nM enzyme, 2.5% DMSO, highest inhibitor concentration 800 μM, N.I. and P. not defined
Chain of GIM-1 (Q704V1 entry or part of it): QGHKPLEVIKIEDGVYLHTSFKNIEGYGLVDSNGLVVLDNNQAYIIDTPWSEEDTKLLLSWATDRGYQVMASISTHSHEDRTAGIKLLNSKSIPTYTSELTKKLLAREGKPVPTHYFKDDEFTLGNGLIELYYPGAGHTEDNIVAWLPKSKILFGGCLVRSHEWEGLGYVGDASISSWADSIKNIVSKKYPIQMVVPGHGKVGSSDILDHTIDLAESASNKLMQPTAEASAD
Procedure: as §1, §2

[3] = biological target: VIM-2 (Escherichia coli, UniProt Q5U7L7); test: MBL inhibition assay, purified VIM-2, nitrocefin hydrolysis at 482 nm; format: biochemical; details: for IC50 against purified VIM-2: nitrocefin reporter substrate, 100 pM enzyme, 2.5% DMSO, highest inhibitor concentration 800 μM, N.I. and P. not defined
Procedure: as §1, §2

[4] = in vitro; format: cell-based; details: human; cell viability after 24 hours incubation, at least two independent experiments; read-out: Cytotoxicity IC50 in HeLa cells
Procedure: The cytotoxicity of phosphonamidate monoesters was evaluated against HeLa cells (ATCC-CCL-2), which were maintained in Dulbecco’s modified Eagle medium (Thermo Fisher Scientific) supplemented with 10% (v/v) fetal bovine serum (Thermo Fisher Scientific), penicillin (100 units/mL), and streptomycin (100 μg/mL, both from Sigma) at 37 °C, 5% CO2. Cells were seeded in 96-well plates (Corning, Merck) at 20 × 10^3 cells/well and incubated for 24 h (37 °C, 5% CO2). Stock solutions of the compounds were prepared at 150 mM in DMSO (Sigma), and the cells were exposed to a serial dilution and incubated for 24 h. Subsequently, the cells were washed twice with culture medium, and the PrestoBlue reagent (Thermo Fischer Scientific) was directly added to the cells for cell viability determination (1:10 dilution in culture medium). Following recommended incubation times (manufacturer’s instructions), fluorescence was measured using a Spark plate reader (Tecan, Austria) at Ex/Em 560/590 nm and corrected for background fluorescence by including control wells containing only cell culture media (no cells). Data analysis was performed using GraphPad Prism 9.0.0 (GraphPad Software, USA). At least two independent experiments were performed.
Figure S1. Cytotoxicity dose-response curves of phosphonamidate monoesters as determined in HeLa cells. The cells were treated with the compounds at the indicated concentrations, and cell viability was measured after 24 hours incubation. The following IC50 values wer e determined to be (A) 69. 2 µM (SD = 1.0) for KAT -A-109-H2, (B) 201.4 µM (SD = 4.4) for KAT -A-102-H1 and (C) 90.7 µM (SD = 1.0) for KAT -A-118-H1. All remaining compounds (D - H) had IC50 values above 500 µM. Data is shown as mean ± SD of at least two independent experiments.
*A 1h, B 1e, C 1f, D 1a, E 1b, F 1d, G 1c. […]

[5] = Solubility in the MIC assay; format: physicochemical; details: Muller Hinton II broth
Procedure: (§3) The in vitro susceptibility of meropenem in combination with the different compounds was evaluated against E. coli expressing NDM-1 in a broth microdilution assay. A 96-well plate was prepared with the compounds in a twofold dilution series (final concentrations 1024–0.5 mg/L) in Muller Hinton II broth (MHB-II) in combination with 2, 4, or 8 mg/L meropenem. EDTA (100 μM) was used in combination with meropenem as control for inhibition of NDM-1. Three–five colonies of E. coli ATCC 25922 NDM-1 were suspended in 0.90% saline solution and adjusted to the 0.5 McFarland turbidity standard. The bacterial suspension was diluted in MHB-II and adjusted to a final inoculum of 5 × 10^5 CFU/mL.
Table S2. Susceptibility assay with E. coli ATCC 25922 NDM-1
Compound Minimum inhibitory concentration (mg/L)
Meropenem:compound ratio Meropenem

[6] = Solubility / aggregation in NMR buffer; format: physicochemical; details: 20 mM K3PO4 aqueous buffer solution at pH 7; aggregation was observed
Procedure: As binding-induced protein NMR chemical shift changes reveal the alteration of the local environment in the vicinity of the monitored nuclei, these are commonly acquired for identification of binding clefts. We monitored the weighted chemical shift changes, Δδ1H,15N, of uniformly ^15N-enriched backbone amide functionalities upon successive additions of the 0–2.370 mM ligand using ^1H,^15N HSQC experiments (Figure 5). Following literature examples,[31] chemical shift perturbations (CSPs) were considered to be significant (SSPs) in case the observed Δδ1H,15N was greater than the population mean plus the standard deviation (μ + 1σ). Such chemical shift changes may directly originate from the interaction or might be indirect and thus be the result of binding-induced conformational changes. Based on its activity against NDM-1 (Table 1) and solubility, 1d was selected for detailed analysis (Figure S2, Supporting Information). […] In order to exclude aggregation of 1d, we also performed additional ^1H,^15N HSQC titration experiments using 5% DMSO or 5% ethanol (EtOH). Some minor chemical shift variations were observed upon the addition of the co-solvents, as expected,[34] whereas neither protein precipitation nor alteration of the overall structure of NDM-1 was detected (Figures S3 and S4, Supporting Information). The chemical shift changes of 234 backbone amides were monitored. […]

[7] = biological target: T1, NDM-1; test: 1H,15N HSQC chemical shift titration and 15N-filtered HSQC-NOESY with 15N-labeled NDM-1; format: binding
Procedure: As binding-induced protein NMR chemical shift changes reveal the alteration of the local environment in the vicinity of the monitored nuclei, these are commonly acquired for identification of binding clefts. We monitored the weighted chemical shift changes, Δδ1H,15N, of uniformly ^15N-enriched backbone amide functionalities upon successive additions of the 0–2.370 mM ligand using ^1H,^15N HSQC experiments (Figure 5). Following literature examples,[31] chemical shift perturbations (CSPs) were considered to be significant (SSPs) in case the observed Δδ1H,15N was greater than the population mean plus the standard deviation (μ + 1σ). […] Some minor chemical shift variations were observed upon the addition of the co-solvents, as expected,[34] whereas neither protein precipitation nor alteration of the overall structure of NDM-1 was detected (Figures S3 and S4, Supporting Information). The chemical shift changes of 234 backbone amides were monitored. […]
Additional information about the binding event was obtained from 3D-^15N-filtered HSQC-NOESY (Figure S6, Supporting Information). […] Thus, in a filtered NOE experiment, only intermolecular cross-peaks are detected. […]
For the titrations, two ^15N-labeled NDM-1 (0.25 mM) batches were prepared. […] All experiments were recorded on a Bruker 600 MHz spectrometer at 310 K equipped with a 5 mm TCI cryogenic probe. […]

[8] = test system: E. coli ATCC 25922 NDM-1; format: cell-based; details: in combination with EDTA 100 μM (control for inhibition of NDM-1)
Procedure: as §3

T1 sequence (C7C422 29-270 limits assumed): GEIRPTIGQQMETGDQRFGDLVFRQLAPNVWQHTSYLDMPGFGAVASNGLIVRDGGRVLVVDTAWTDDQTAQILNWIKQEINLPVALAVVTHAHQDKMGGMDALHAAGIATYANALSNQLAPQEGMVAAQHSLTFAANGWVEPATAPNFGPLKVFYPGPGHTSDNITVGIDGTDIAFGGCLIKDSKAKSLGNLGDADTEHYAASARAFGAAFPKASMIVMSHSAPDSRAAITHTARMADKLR

COC(=O)[C@H](NP(=O)(CCSC(C)=O)OC)c1ccccc1 (mixture of isomers) [1c, Methyl (R)-2-(((R/S)-(2-(Acetylthio)ethyl) (methoxy)phosphoryl)amino)-2-phenylacetate]
IC50 against purified NDM-1 [1]: N.I
IC50 against purified GIM-1 [2]: N.I.
IC50 [3]: 500 µM
IC50 [4]: > 500 µM

CCO[P@@](=O)(N[C@@H](C(=O)OC)c1ccccc1)[C@@H](CSC(C)=O)Cc1ccccc1 (mixture of isomers) [1g, Methyl (R)-2-(((R/S)-((R/S)-1-(Acetylthio)-3-phenylpropan-2-yl) (ethoxy)phosphoryl)amino)-2-phenylacetate]
IC50 against purified NDM-1 [1]: P.
IC50 against purified GIM-1 [2]: P.
IC50 against purified VIM-2 [3]: P.
Solubility in MIC assay [5]: could not be dissolved

COP(=O)(CCSC(C)=O)NCc1ccccn1 (racemic) [1a, (R/S)-(2-(Methoxy((pyridin-2-ylmethyl)amino)phosphoryl)ethyl) Ethanethioate]
IC50 against purified NDM-1 [1]: N.I.
IC50 [2]: 86 µM
IC50 against purified VIM-2 [3]: N.I.
IC50 at 24 h [4]: > 500 µM

COP(=O)(CCSC(C)=O)N(C)Cc1ccccn1 (racemic) [1b, (R/S)-(2-(Methoxy(methyl(pyridin-2-ylmethyl)amino)phosphoryl)ethyl) Ethanethioate]
IC50 [1]: 356 µM
IC50 [2]: 109 µM
IC50 at 24 h [4]: > 500 µM

COP(=O)(CCSC(C)=O)N(Cc1ccccn1)Cc1ccccn1 (racemic) [1d, (R/S)-(2-((Bis(pyridin-2-ylmethyl)amino) (methoxy)phosphoryl)ethyl) Ethanethioate]
IC50 [1]: 430 µM
IC50 against purified GIM-1 [2]: N.I.
IC50 against purified VIM-2 [3]: N.I.
IC50 [4]: > 500 µM
Solubility [6]: limited solubility
Enzymatic modification of the structure by NDM-1 during the NMR studies [7]: no sign for enzymatic modification
Binding to NDM-1 by chemical shift perturbation ([7]; 0.25 mM 15N-labeled NDM-1, up to 1:10 protein/ligand, 310 K): specific binding

CCOP(=O)(NCc1ccccn1)C(CSC(C)=O)Cc1ccccc1 (racemic) [1e, S-((R/S)-2-((R/S)-(2-(Ethoxy((pyridine-2-ylmethyl)amino)phosphoryl)-3-phenylpropyl) Ethanethioate]
IC50 against purified NDM-1 [1]: N.I.
IC50 against purified VIM-2 [3]: N.I.
IC50 [4]: 201 µM
Solubility in MIC assay [5]: could not be dissolved

CCO[P@](=O)([C@@H](CSC(C)=O)Cc1ccccc1)N(C)Cc1ccccn1 (racemic) [1f, S-((R/S)-2-((R/S)-Ethoxy(methyl(pyridin-2-ylmethyl)amino)phosphoryl)-3-phenylpropyl) Ethanethioate]
IC50 against purified NDM-1 [1]: P.
IC50 against purified GIM-1 [2]: P.
IC50 against purified VIM-2 [3]: P.
IC50 [4]: 90.7 µM
Solubility in MIC assay [5]: could not be dissolved

CCO[P@](=O)([C@@H](CSC(C)=O)Cc1ccccc1)N(Cc1ccccn1)Cc1ccccn1 (racemic) [1h, S-((R/S)-2-((R/S)-(Bis(pyridin-2-ylmethyl)amino)(ethoxy)phosphoryl)-3-phenylpropyl) Ethanethioate]
IC50 against purified NDM-1 [1]: P.
IC50 against purified GIM-1 [2]: P.
IC50 against purified VIM-2 [3]: P.
IC50 [4]: 69.2 µM

O=C(O)CN(CCN(CC(=O)O)CC(=O)O)CC(=O)O [EDTA]
Minimum inhibitory concentration of meropenem [8]: < 2 µg/mL

COP(=O)(CCS)NCc1ccccn1 (stereo not drawn) [compound 2]
IC50 against purified NDM-1 [1]: N.I.
IC50 against purified GIM-1 [2]: N.I.
IC50 against purified VIM-2 [3]: N.I.
